Results from article PMC7893776, “Selecting an anti-malarial clinical candidate from two potent dihydroisoquinolones” (Malaria Journal, 2021).
Where two headings read alike, the source gives them in different places.

Assay: Dog pharmacokinetics, single PO or IV dose
Assay type: in vivo, male beagle dogs
Conditions: for bioavailability: read-out: Dog F (oral bioavailability)
From the text: Studies were undertaken to determine the plasma pharmacokinetics of SJ733 and SJ311. These studies included: (i) single oral gavage (PO) or intravenous (IV) dose administration to female C57BL/6 mice; (ii) single PO or IV dose administration to male Sprague Dawley (SD) rats; (iii) single PO or IV dose administration to male beagle dogs; (iv) toxicokinetic (TK) study following single PO administration to male SD rats. The PO and IV formulation used for mouse studies at SJCRH was 1% hydroxypropyl-beta-cyclodextrin (w/v), 10% ethanol (v/v), 10% propylene glycol (v/v), 40% PEG-400 (v/v) and 39% PBS (pH 7.4) isotonic (v/v). Compounds were dosed orally as suspensions, and intravenously as filtered solutions. Compound concentrations were confirmed post filtration using UV spectroscopy. The IV formulation used for rat studies (Monash University) was the same as that used for mice. For PO dosing to rats (Monash University) at 2 mg/kg, a suspension formulation was used containing 0.5% (w/v) hydroxypropyl methylcellulose, 0.5% (v/v) benzyl alcohol and 0.4% (v/v) Tween 80. The formulation used for rat studies at SRI (PO, high dose) was the same as that used in mouse PK studies. The formulation for the high dose TK study at SRI was 0.5% methylcellulose in sterile water. The formulation used for dog studies was the same as that used in mouse PK studies. The plasma PK of SJ733 and SJ311 following a single PO gavage or IV dose (via saphenous vein) to male beagle dogs was determined at an IV dose of 3 mg/kg and PO doses of 3 and 30 mg/kg (n = 3 for each). Briefly, this PK study was carried out in three sessions with one week washout period in between to allow for complete clearance of compounds. In the first session, 6 male dogs were administered a single 3 mg/kg IV dose of SJ311 or SJ733. In the subsequent second and third sessions, the same 6 male dogs were given a single 3 mg/kg or 30 mg/kg PO dose of SJ311 or SJ733, respectively. Plasma (0 -72 h) and urine (0–48 h) samples were collected for further analysis of SJ311 or SJ733 concentrations. Dog plasma was extracted utilizing protein precipitation with a twofold volume ratio of acetonitrile, while urine samples were extracted utilizing liquid–liquid extraction with ethyl acetate. SJ733, SJ311, and verapamil (IS) were quantitated by LC–MS/MS as described above. Plasma concentration time (Ct) data for SJ733 and SJ311 were grouped by nominal time point, and the mean Ct values were subjected to noncompartmental analysis (NCA) using Phoenix WinNonlin 8.1 (Certara USA, Inc., Princeton, NJ). For all experiments, the area under the Ct and first moment curves (AUC, AUMC) were estimated using the “linear up log down” method. The terminal phase was defined as at least three time points at the end of the Ct profile, and the elimination rate constant (Kel) was estimated using an unweighted log-linear regression of the terminal phase. The terminal elimination half-life (T1/2) was estimated as 0.693/Kel, and the AUC from time 0 to infinity ([…]) was estimated as the AUC to the last time point (AUClast) + Clast (predicted)/Kel with the […] similarly calculated. Additional parameters estimated included observed maximum concentration (Cmax), time of Cmax (Tmax), concentration at the last observed time point (Clast), time of Clast (Tlast), and the apparent oral terminal volume of distribution (V/F). The apparent oral clearance (CL/F), systemic clearance (CL) and volume of distribution at steady state (Vss) were all estimated using standard formulae [19].

[1] = male, beagle, plasma, po, dosed orally, read-out: Tmax
[2] = male, beagle, plasma, po, summary over the oral doses studied

Row | SMILES | AUCinf (single IV 3 mg/kg) [µM·h] | CL (single IV 3 mg/kg) [mL/min/kg] | Dose in urine (single IV 3 mg/kg) [%] | Half life (single IV 3 mg/kg) [h] | Vss (single IV 3 mg/kg) [L/kg] | AUCinf (single PO 3 mg/kg) [µM·h] | CL (single PO 3 mg/kg) [mL/min/kg] | Cmax (single PO 3 mg/kg) [µM] | Dose in urine (single PO 3 mg/kg) [%] | F% (single PO 3 mg/kg) [%] | Half life (single PO 3 mg/kg) [h] | Tmax (single PO 3 mg/kg) [h] | V (single PO 3 mg/kg) [L/kg] | AUCinf (single PO 30 mg/kg) [µM·h] | CL (single PO 30 mg/kg) [mL/min/kg] | Cmax (single PO 30 mg/kg) [µM] | Dose in urine (single PO 30 mg/kg) [%] | F% (single PO 30 mg/kg) [%] | Half life (single PO 30 mg/kg) [h] | Tmax (single PO 30 mg/kg) [h] | other results
1 | N#Cc1cc(NC(=O)[C@H]2c3ccccc3C(=O)N(CC(F)(F)F)[C@@H]2c2cccnc2)ccc1F [(+)-SJ733] | 33.1 ± 10.0 | 3.4 ± 0.9 | 1.9 ± 0.3 | 9.6 ± 4.7 | 2.8 ± 1.8 | 40.6 ± 12.9 | 2.82 ± 0.917 | 3 ± 0.7 | 2.8 ± 0.2 | 115 ± 29 | 11.4 ± 5.0 | 0.83 | 2.6 ± 0.8 | 243 ± 52.9 | 4.57 ± 1.12 | 25.6 ± 2.1 | 3.1 ± 1.9 | 73.7 ± 16.1 | 5.3 ± 0.7 | 1.67 | V (single PO 30 mg/kg): 2.1 ± 0.8 L/kg
2 | N#Cc1cc(NC(=O)[C@H]2c3ccccc3C(=O)N(CC(F)(F)F)[C@@H]2c2cn[nH]c2)ccc1F [SJ311] | – | – | – | – | – | – | – | – | – | – | – | – | – | – | – | – | – | – | – | – | Tmax [1]: 3 h; bioavailability [2]: 74 to 78%; % dose recovered in dog urine (regardless of route, mean): 32-34%
3 | N#Cc1cc(NC(=O)[C@H]2c3ccccc3C(=O)N(CC(F)(F)F)[C@@H]2c2cn[nH]c2)ccc1F [(+)-SJ311] | 77.0 ± 12.4 | 1.42 ± 0.217 | 32.3 ± 21.3 | 7.8 ± 2.2 | 0.96 ± 0.27 | 56.2 ± 12.1 | 2.02 ± 0.5 | 4 ± 0.8 | 34.7 ± 15.9 | 73.0 ± 15.8 | 6.1 ± 0.6 | 3.3 ± 1.2 | 1.1 ± 0.4 | 601 ± 137 | 1.88 ± 0.417 | 35 ± 5.1 | 33.4 | 77.9 ± 17.7 | 6.7 ± 1.4 | 3.0 ± 1.7 | V (single PO 30 mg/kg): 1.1 ± 0.4 L/kg
4 | N#Cc1cc(NC(=O)[C@H]2c3ccccc3C(=O)N(CC(F)(F)F)[C@@H]2c2cccnc2)ccc1F (racemic) [SJ733] | – | – | – | – | – | – | – | – | – | – | – | – | – | – | – | – | – | – | – | – | Tmax [1]: 1 h; bioavailability [2]: 60 to 100%; Dog F (oral bioavailability) (summary over the oral doses studied): 74-115%
